In paper PMC11054271, “ABCG2 Transports the Flukicide Nitroxynil and Affects Its Biodistribution and Secretion into Milk” (Pharmaceutics, 2024):

Legend:
bovine ABCG2 = biological target: T1, bovine ABCG2 (Bos taurus, UniProt Q4GZT4); experiment: Transepithelial transport assay in MDCK-II cells transduced with bovine ABCG2; format: in vitro ADME; details: cattle, MDCK-II bABCG2, nitroxynil 10 µM, no Ko143, read-out: Relative efflux transport ratio (BA/AB)
T1 construct: expressed in transfected cells; host or cells: MDCK-II (canine kidney) subclone generated by the authors' group
T1 sequence (Q4GZT4 1-655): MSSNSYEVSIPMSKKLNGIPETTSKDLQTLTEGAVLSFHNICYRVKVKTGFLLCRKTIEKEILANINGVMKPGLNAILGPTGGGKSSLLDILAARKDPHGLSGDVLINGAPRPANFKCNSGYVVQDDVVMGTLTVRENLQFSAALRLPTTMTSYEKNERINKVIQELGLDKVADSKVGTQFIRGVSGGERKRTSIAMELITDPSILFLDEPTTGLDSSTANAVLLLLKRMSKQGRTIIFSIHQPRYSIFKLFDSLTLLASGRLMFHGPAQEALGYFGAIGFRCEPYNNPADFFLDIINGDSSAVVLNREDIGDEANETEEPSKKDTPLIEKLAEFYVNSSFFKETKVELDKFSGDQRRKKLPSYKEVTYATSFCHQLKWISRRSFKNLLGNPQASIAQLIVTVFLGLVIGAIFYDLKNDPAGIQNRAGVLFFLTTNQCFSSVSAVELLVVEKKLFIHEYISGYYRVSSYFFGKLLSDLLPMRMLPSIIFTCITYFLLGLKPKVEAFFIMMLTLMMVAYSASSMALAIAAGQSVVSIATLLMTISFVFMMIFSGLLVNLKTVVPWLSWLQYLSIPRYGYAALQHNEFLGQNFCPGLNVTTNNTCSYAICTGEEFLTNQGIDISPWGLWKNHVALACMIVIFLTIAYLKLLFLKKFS
Procedure: (§1) Parental Madin–Darby canine kidney epithelial cells (MDCK–II) and their subclones transduced with murine (mAbcg2) and human (hABCG2) variants of ABCG2 were kindly provided by Dr. A. H. Schinkel (Netherlands Cancer Institute). Transduced MDCK–II cells with the ovine (oABCG2) and bovine (bABCG2) variants were previously generated by our group. Cells were cultured as described elsewhere.
(§2) Transepithelial transport assays were carried out as previously described with minor variations, using Hanks’ balanced salt solution (Sigma-Aldrich) supplemented with HEPES (25 mM), with or without Ko143 (1 μM), and containing or not nitroxynil 10 μM. […] At the end of the experiment, confluence of the monolayer was measured with the previously described Lucifer Yellow permeability test, with minor modifications. The appearance of nitroxynil in the opposite side of the well was measured by HPLC as later described. Active transport was expressed as relative efflux transport ratio (apically directed transport percentage divided by the basolaterally directed translocation percentage) at 4 h and referred to the initial concentration. […]
(§3) Waters 2695 separation module and Waters 2998 UV photodiode array detector set at 270 nm were used for samples analysis. […] Limit of detection (LOD) and quantification (LOQ) were calculated as previously described. […]

human ABCG2 = biological target: T2, human ABCG2 (Homo sapiens, UniProt Q9UNQ0); experiment: Transepithelial transport assay in MDCK-II cells transduced with human ABCG2; format: in vitro ADME; details: MDCK-II hABCG2, nitroxynil 10 µM, no Ko143, read-out: Relative efflux transport ratio (BA/AB)
T2 construct: expressed in transfected cells; host or cells: MDCK-II (canine kidney) subclone, provided by A. H. Schinkel (Netherlands Cancer Institute)
T2 sequence (Q9UNQ0 1-655): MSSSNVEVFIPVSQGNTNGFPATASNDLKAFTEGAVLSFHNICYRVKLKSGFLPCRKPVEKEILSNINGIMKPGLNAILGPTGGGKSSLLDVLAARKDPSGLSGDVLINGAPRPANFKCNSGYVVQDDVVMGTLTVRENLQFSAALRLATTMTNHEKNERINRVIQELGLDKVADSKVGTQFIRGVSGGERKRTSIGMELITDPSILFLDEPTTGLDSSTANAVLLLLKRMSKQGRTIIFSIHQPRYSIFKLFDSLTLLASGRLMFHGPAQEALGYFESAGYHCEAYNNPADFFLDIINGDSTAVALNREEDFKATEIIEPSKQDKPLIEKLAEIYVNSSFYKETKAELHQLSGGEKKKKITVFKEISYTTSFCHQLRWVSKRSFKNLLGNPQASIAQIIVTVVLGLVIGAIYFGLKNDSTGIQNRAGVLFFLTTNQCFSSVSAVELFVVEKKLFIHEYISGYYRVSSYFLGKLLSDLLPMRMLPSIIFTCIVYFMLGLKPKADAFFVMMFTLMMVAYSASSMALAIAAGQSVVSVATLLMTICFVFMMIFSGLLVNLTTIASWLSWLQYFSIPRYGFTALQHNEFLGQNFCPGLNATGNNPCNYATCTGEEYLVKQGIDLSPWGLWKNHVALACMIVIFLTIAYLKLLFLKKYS
Procedure: as §1, §2, §3

- efflux ratio at 4 h, 10 µM (bovine ABCG2): 3.25 ± 0.14
- efflux ratio at 4 h, 10 µM (human ABCG2): 8.76 ± 0.5
SMILES: N#Cc1cc(I)c(O)c([N+](=O)[O-])c1 [nitroxynil]
